{"source": "ChEMBL document CHEMBL1130829", "about": "“Inhibition of human cytomegalovirus protease N(o) with monocyclic beta-lactams” (Bioorg Med Chem Lett, 1998)", "key": {"[1]": {"target": "Chymotrypsinogen B (Homo sapiens, UniProt P17538)", "sequence (P17538 34-164 limits assumed, other chains not shown)": "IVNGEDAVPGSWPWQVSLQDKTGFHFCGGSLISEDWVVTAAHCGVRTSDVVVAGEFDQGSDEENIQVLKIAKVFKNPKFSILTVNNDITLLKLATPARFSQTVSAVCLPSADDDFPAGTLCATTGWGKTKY", "sequence (P17538 167-263 limits assumed, other chains not shown)": "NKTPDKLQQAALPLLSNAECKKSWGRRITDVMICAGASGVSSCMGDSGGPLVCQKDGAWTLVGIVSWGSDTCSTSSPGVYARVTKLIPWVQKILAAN", "assay": "Inhibitory activity against alpha-chymotrypsin"}, "[2]": {"target": "Cathepsin B (Homo sapiens, UniProt P07858)", "assay": "Inhibitory activity against Cathepsin B"}, "[3]": {"target": "T1, Neutrophil elastase (Homo sapiens, UniProt P08246)", "T1 sequence (P08246 whole entry)": "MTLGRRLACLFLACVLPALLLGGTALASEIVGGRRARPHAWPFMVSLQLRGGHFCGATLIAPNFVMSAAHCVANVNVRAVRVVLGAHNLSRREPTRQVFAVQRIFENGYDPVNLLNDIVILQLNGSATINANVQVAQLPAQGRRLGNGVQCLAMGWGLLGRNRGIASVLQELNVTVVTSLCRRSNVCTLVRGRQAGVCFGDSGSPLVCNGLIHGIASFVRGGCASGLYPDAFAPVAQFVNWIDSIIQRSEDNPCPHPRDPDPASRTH", "assay": "Inhibitory activity against human leukocyte elastase protease(HLE)"}, "[4]": {"target": "T2, Capsid scaffolding protein (Human cytomegalovirus (strain AD169) (HHV-5) (Human herpesvirus 5), UniProt P16753)", "T2 sequence (P16753 whole entry)": "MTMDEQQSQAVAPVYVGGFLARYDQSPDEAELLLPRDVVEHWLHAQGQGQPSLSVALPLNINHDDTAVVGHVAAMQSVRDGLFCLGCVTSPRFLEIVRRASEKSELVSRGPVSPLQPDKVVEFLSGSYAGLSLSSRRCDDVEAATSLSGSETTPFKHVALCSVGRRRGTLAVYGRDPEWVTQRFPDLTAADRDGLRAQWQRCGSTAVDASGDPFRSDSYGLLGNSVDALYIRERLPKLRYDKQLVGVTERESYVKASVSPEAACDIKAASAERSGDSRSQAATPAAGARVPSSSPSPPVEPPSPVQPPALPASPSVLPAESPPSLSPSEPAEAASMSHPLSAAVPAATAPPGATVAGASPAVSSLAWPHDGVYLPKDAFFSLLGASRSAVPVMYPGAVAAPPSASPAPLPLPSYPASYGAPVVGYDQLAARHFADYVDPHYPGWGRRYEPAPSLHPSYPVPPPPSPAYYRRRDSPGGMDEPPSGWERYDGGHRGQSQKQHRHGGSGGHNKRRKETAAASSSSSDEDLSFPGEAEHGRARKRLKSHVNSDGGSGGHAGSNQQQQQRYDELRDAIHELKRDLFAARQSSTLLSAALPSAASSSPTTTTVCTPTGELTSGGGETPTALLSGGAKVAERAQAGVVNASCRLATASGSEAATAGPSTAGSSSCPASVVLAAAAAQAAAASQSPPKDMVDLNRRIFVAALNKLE", "assay": "Inhibitory activity against human cytomegalovirus (HCMV) protease", "design": "species or system Human herpesvirus 5 strain AD169"}}, "note": "pIC50: −log10 of the molar value."}
{"smiles": "CC(C)C[C@@H](COC1CC(=O)N1C(=O)NCc1ccccc1)NC(=O)[C@@H](NC(=O)OC(C)(C)C)C(C)(C)C", "note": "(stereo partly drawn)", "values": [{"measurement": "pIC50", "setting": "[1]", "value": 5.08}, {"measurement": "pIC50", "setting": "[2]", "value": "< 4.12"}, {"measurement": "pIC50", "setting": "[3]", "value": "< 4.12"}]}
{"smiles": "CC(C)C[C@@H](COC1CC(=O)N1C(=O)N[C@H](C)c1ccccc1)NC(=O)[C@@H](NC(=O)OC(C)(C)C)C(C)(C)C", "note": "(stereo partly drawn)", "values": [{"measurement": "pIC50", "setting": "[1]", "value": "< 4.12"}, {"measurement": "pIC50", "setting": "[2]", "value": "< 4.12"}, {"measurement": "pIC50", "setting": "[3]", "value": "< 4.12"}, {"measurement": "pIC50", "setting": "[4]", "value": 5.85}]}
{"smiles": "C[C@@H](NC(=O)N1C(=O)CC1SCCc1ccccc1)c1ccccc1", "note": "(stereo partly drawn)", "values": [{"measurement": "pIC50", "setting": "[1]", "value": "< 4.12"}, {"measurement": "pIC50", "setting": "[2]", "value": "< 4.12"}, {"measurement": "pIC50", "setting": "[3]", "value": "< 4.12"}]}
{"smiles": "C[C@@H](NC(=O)N1C(=O)CC1SCc1ccccn1)c1ccccc1", "note": "(stereo partly drawn)", "values": [{"measurement": "pIC50", "setting": "[1]", "value": "< 4.12"}, {"measurement": "pIC50", "setting": "[2]", "value": "< 4.12"}, {"measurement": "pIC50", "setting": "[3]", "value": "< 4.12"}]}
{"smiles": "C[C@@H](NC(=O)N1C(=O)CC1SCc1ccc(CC(=O)OC(C)(C)C)cc1)c1ccccc1", "note": "(stereo partly drawn)", "values": [{"measurement": "pIC50", "setting": "[1]", "value": "< 4.12"}, {"measurement": "pIC50", "setting": "[2]", "value": "< 4.12"}, {"measurement": "pIC50", "setting": "[3]", "value": "< 4.12"}, {"measurement": "pIC50", "setting": "[4]", "value": 4.12}]}
{"smiles": "CC(C)C[C@@H](COC1CC(=O)N1C(=O)N[C@@H](C)c1ccccc1)NC(=O)[C@@H](NC(=O)OC(C)(C)C)C(C)(C)C", "note": "(stereo partly drawn)", "values": [{"measurement": "pIC50", "setting": "[1]", "value": "< 4.12"}, {"measurement": "pIC50", "setting": "[2]", "value": "< 4.12"}, {"measurement": "pIC50", "setting": "[3]", "value": "< 4.12"}, {"measurement": "pIC50", "setting": "[4]", "value": 6.52}]}
{"smiles": "C[C@@H](NC(=O)N1C(=O)CC1SCc1cccnc1)c1ccccc1", "note": "(stereo partly drawn)", "values": [{"measurement": "pIC50", "setting": "[1]", "value": "< 4.12"}, {"measurement": "pIC50", "setting": "[2]", "value": "< 4.12"}, {"measurement": "pIC50", "setting": "[3]", "value": "< 4.12"}]}
{"smiles": "C[C@@H](NC(=O)N1C(=O)CC1Sc1ccccc1)c1ccccc1", "note": "(stereo partly drawn)", "values": [{"measurement": "pIC50", "setting": "[1]", "value": "< 4.12"}, {"measurement": "pIC50", "setting": "[2]", "value": "< 4.12"}, {"measurement": "pIC50", "setting": "[3]", "value": "< 4.12"}]}
{"smiles": "C[C@@H](NC(=O)N1C(=O)CC1SCc1ccncc1)c1ccccc1", "note": "(stereo partly drawn)", "values": [{"measurement": "pIC50", "setting": "[1]", "value": "< 4.12"}, {"measurement": "pIC50", "setting": "[2]", "value": "< 4.12"}, {"measurement": "pIC50", "setting": "[3]", "value": "< 4.12"}]}
{"smiles": "C[C@@H](NC(=O)N1C(=O)CC1SCc1ccccc1)c1ccccc1", "note": "(stereo partly drawn)", "values": [{"measurement": "pIC50", "setting": "[1]", "value": "< 4.12"}, {"measurement": "pIC50", "setting": "[2]", "value": "< 4.12"}, {"measurement": "pIC50", "setting": "[3]", "value": "< 4.12"}, {"measurement": "pIC50", "setting": "[4]", "value": 5.62}]}
{"smiles": "CC(C)C[C@@H](COC1CC(=O)N1)NC(=O)[C@@H](NC(=O)OC(C)(C)C)C(C)(C)C", "note": "(stereo partly drawn)", "values": [{"measurement": "pIC50", "setting": "[4]", "value": "< 3.52"}]}
{"smiles": "CC[C@@H](NC(=O)N1C(=O)[C@@H](C)[C@@H]1SCc1ccccn1)c1ccccc1", "values": [{"measurement": "pIC50", "setting": "[1]", "value": 5.77}, {"measurement": "pIC50", "setting": "[2]", "value": "< 4.12"}, {"measurement": "pIC50", "setting": "[3]", "value": "> 6.82"}]}
{"smiles": "CC[C@H](NC(=O)N1C(=O)CC1SC[C@H](CC(C)C)NC(=O)[C@@H](NC(=O)CC(C)(C)C)C(C)(C)C)c1ccccc1", "note": "(stereo partly drawn)", "values": [{"measurement": "pIC50", "setting": "[1]", "value": "< 4.12"}, {"measurement": "pIC50", "setting": "[2]", "value": "< 4.12"}, {"measurement": "pIC50", "setting": "[3]", "value": "< 4.12"}, {"measurement": "pIC50", "setting": "[4]", "value": 7.15}]}
{"smiles": "CC(C)C[C@@H](CSC1CC(=O)N1C(=O)NCc1ccccc1)NC(=O)[C@@H](NC(=O)OC(C)(C)C)C(C)(C)C", "note": "(stereo partly drawn)", "values": [{"measurement": "pIC50", "setting": "[1]", "value": 6.10}, {"measurement": "pIC50", "setting": "[2]", "value": "< 4.12"}, {"measurement": "pIC50", "setting": "[3]", "value": "< 4.12"}]}
{"smiles": "CC[C@@H](NC(=O)N1C(=O)CC1SCc1ccccn1)c1ccccc1", "note": "(stereo partly drawn)", "values": [{"measurement": "pIC50", "setting": "[1]", "value": "< 4.12"}, {"measurement": "pIC50", "setting": "[2]", "value": "< 4.12"}, {"measurement": "pIC50", "setting": "[3]", "value": "< 4.12"}]}
{"smiles": "O=C1CC(SCc2ccccn2)N1C(=O)NCCOCc1ccccc1", "note": "(stereo not drawn)", "values": [{"measurement": "pIC50", "setting": "[1]", "value": "< 4.12"}, {"measurement": "pIC50", "setting": "[2]", "value": "< 4.12"}, {"measurement": "pIC50", "setting": "[3]", "value": "< 4.12"}, {"measurement": "pIC50", "setting": "[4]", "value": 5.19}]}
{"smiles": "O=C1CC(SCc2ccccn2)N1C(=O)N[C@H](CO)c1ccccc1", "note": "(stereo partly drawn)", "values": [{"measurement": "pIC50", "setting": "[1]", "value": "< 4.12"}, {"measurement": "pIC50", "setting": "[2]", "value": "< 4.12"}, {"measurement": "pIC50", "setting": "[3]", "value": "< 4.12"}]}
{"smiles": "C[C@@H](NC(=O)N1C(=O)CC1SCC(=O)c1ccccc1)c1ccccc1", "note": "(stereo partly drawn)", "values": [{"measurement": "pIC50", "setting": "[1]", "value": "< 4.12"}, {"measurement": "pIC50", "setting": "[2]", "value": "< 4.12"}, {"measurement": "pIC50", "setting": "[3]", "value": "< 4.12"}]}
